Experiments:
[1] = set-up: method as in PMID 37132383; conditions: cited from earlier work
E0771 tumors = experiment: E0771 breast tumor model in syngeneic C57BL/6 J mice (tumor size, VEGFA ELISA, flow cytometry); format: in vivo; conditions: 10 mg/kg i.p. once daily for 10 days
Protocol: A 1:1 mixture of polyethylene glycol 400 (PEG400) (Merck, 8.17003.1000) and Cremophor EL (Sigma, C5135–500G) was used to dissolve I29 at a concentration of 10 mM and served as the vehicle control. Initially, I29 was suspended in PEG400, after which Cremophor EL was added to the solution. The mixture was then heated to 80 °C until the compound was fully dissolved. Both the compound and vehicle were diluted 1:10 in physiological saline immediately prior to administration to mice at a dose of 10 mg/kg.
E0771 cells (1 × 10^6) were injected subcutaneously into both flanks of 12 female C57BL/6 J mice. Once the primary tumors reached a volume of 100–200 mm^3 (palpable), the mice were randomized into two groups and treated with either I29 or vehicle (Cremophor and PEG400). I29 was administered intraperitoneally (i.p.) once daily for 10 consecutive days at a dose of 10 mg/kg. Twenty-four hours after the final injection, the mice were euthanized. Tumors were excised, weighed, and processed for flow cytometry analysis of immune cells and immune checkpoints, including PD-1 and PD-L1, as well as for VEGFA quantification by ELISA.
The procedure was described in detail in [29]. Briefly, primary subcutaneous tumors derived from E0771 cells were minced into small fragments and enzymatically digested with 0.5 mg/mL Collagenase IV (Sigma) and 40 μg/mL DNase I in RPMI 1640 medium for 30 min at 37°C. The resulting cells were resuspended in HBSS containing 0.5 % FBS and incubated at 4°C for 20 min with the following antibodies (BioLegend): CD45 BV650 (clone 104; 0.6/100), CD11b PerCP-Cy5.5 (clone M1/70; 0.3/100), Ly6C BV421 (clone HK1.4; 0.6/100), Ly6G AF700 (clone 1A8; 0.6/100), F4/80 PE-Cy7 (clone BM8; 0.3/100), PD-L1 APC (clone 10 F.9G2; 1/100), CD3 BV605 (clone 145–2C11; 0.6/100), CD4 AF700 (clone GK1.5; 0.6/100), CD8 BV785 (clone 53–6.7; 0.6/100), and PD1 (clone 29.F1A12; 0.6/100). Cell viability was determined using the LIVE/DEAD™ Fixable Near IR Viability Kit (Invitrogen, L34981). Samples were acquired using a Cytoflex LX flow cytometer with CytExpert software, and data were analyzed with Kaluza 2.0 software (Beckman Coulter).
Within the CD45 + leukocyte population, monocytic myeloid-derived suppressor cells (M) MDSCs (CD11b+Ly6G−Ly6Chi), polymorphonuclear granulocytic (PMN−) MDSCs (CD11b+Ly6G+Ly6Clo), and tumor-associated macrophages (TAMs; CD11b+Ly6Clo/−F4/80 +) were identified. Total T lymphocytes (CD3 +) were gated within CD45 + population, and frequencies of CD3 +CD4 + and CD3 +CD8 +T cells subsets were quantified. PD1 expression was evaluated on CD4 + and CD8 + T cells, while PD-L1 expression was assessed on MDSCs and TAMs. Expression levels are reported as geometric mean fluorescence intensity (gMFI).
For VEGFA measurements in E0771 tumors, tumors were weighed, and 50 mg of each was isolated and lysed in PBS containing protease inhibitors but no EDTA. Following homogenization, samples were frozen overnight and then subjected to repeated freeze-thaw cycles the next day. Insoluble debris was removed by high-speed centrifugation, and the supernatant was quantified using the BCA assay. A total of 190 μg of protein was then analyzed using a mouse VEGF Quantikine ELISA Kit (MMV00, R&D Systems).

[2] = test system: WT and SEPN1 KD C2C12 muscle cells; experiment: Real-time quantitative RT-PCR of ER stress markers BIP, CHOP, ERO1; format: cell-based; conditions: 2 μM
Source text: RNA from WT and SEPN1KD C2C12 was reverse-transcribed and analyzed using the Applied Biosystems’ real-time PCR System and the ΔΔCt method. Relative gene expression in cells was normalized to Actin mRNA levels as in [27].

WT and SEPN1 KO myotubes = experiment: TMRM staining of mitochondrial membrane potential in WT and SEPN1 KO myotubes; format: cell-based, mice; conditions: 1–5 μM, 16 h treatment
Protocol: Muscle stem cells were isolated from muscles of 1-month-old wild-type (WT) and SEPN1 knockout (KO) mice using a tissue dissociation protocol with the gentleMACS™ Octo Dissociator with Heaters (Miltenyi Biotec, Bergisch Gladbach, Germany), followed by magnetic depletion. […]
After 16 h of treatment with EN460 or I29 in differentiation medium, the culture medium was removed and replaced with the TMRM staining solution for the assessment of mitochondrial membrane potential. […] TMRM fluorescence was acquired at λexc 561 nm / λem 595 nm by a Nikon A1 confocal system equipped with an Okolab stage incubator (CO2 5 %, 37°C, 90 % humidity) immediately after TMRM and over a 10-minute baseline period with 65 s time interval. […] Data were analyzed using ImageJ. Briefly, background noise was set to NaN and the remaining signal quantified as mean pixel gray values. Data were expressed as ΔF/F0 (F0= mean of baseline signal).

In the case of `O=C(O)c1cc(N2N=C(C(F)(F)F)/C(=C\c3ccc(-c4ccccc4)o3)C2=O)ccc1Cl` [EN460, reference compound], the aqueous solubility [1] is given as “poor aqueous solubility”.

In the case of `O=C1/C(=C/c2ccc(-c3ccccc3)o2)C(C(F)(F)F)=NN1c1ccccc1F` [I29], the tolerability (E0771 tumors; E0771 tumor-bearing mice) is reported as “well tolerated, with no overt signs of toxicity or weight loss observed”, the “PD-1 expression on CD4+ and CD8+ T cells” value (E0771 tumors; flow cytometry of tumors) is reported as “remained unchanged” and the “PD-L1 expression in monocytic myeloid-derived suppressor cells (M-MDSCs)” value (E0771 tumors; flow cytometry of tumors) is reported as “statistically significant reduction”. For the same compound, the “VEGFA levels in tumors (ELISA)” value (E0771 tumors; vs vehicle) was “reduced”, the tumor volume (E0771 tumors; vs vehicle) was “no significant differences” and the “tumor weight (ex vivo)” value (E0771 tumors; vs vehicle) was “slight reduction in tumor weight”. For the same compound, the CHOP expression [2] was “downregulate CHOP expression” and the “TMRM fluorescence (mitochondrial membrane potential)” value (WT and SEPN1 KO myotubes) was “significant increase in TMRM fluorescence”.
